# Measured values from patent publication US6921840B1 (The Trustees of the University of Pennsylvania, priority 1999, dated 2005).
# Like-named read-outs stand apart in the source and are kept apart here.
# Assays:
# [1] = biological target: T1, dopamine transporter (DAT) expressed in LLC-PK1 cells (Rattus norvegicus, UniProt P23977); experiment: [125I]IPT competition binding, LLC-DAT membrane homogenates
# T1 construct: host or cells: LLC-PK1 (LLC-DAT)
# Excerpt: (§1) Three monoamine transporters expressed respectively in a common parental cell line, LLC-PK, (referred to as LLC-DAT. LLC-NET and LLC-SERT) were kindly provided by Dr. G. Rudnick of Yale University.
# [2] = biological target: T2, serotonin transporter (SERT) expressed in LLC-PK1 cells (Rattus norvegicus, UniProt P31652); experiment: [125I]IPT competition binding, LLC-SERT membrane homogenates
# T2 construct: host or cells: LLC-PK1 (LLC-SERT)
# T2 sequence (P31652 whole entry): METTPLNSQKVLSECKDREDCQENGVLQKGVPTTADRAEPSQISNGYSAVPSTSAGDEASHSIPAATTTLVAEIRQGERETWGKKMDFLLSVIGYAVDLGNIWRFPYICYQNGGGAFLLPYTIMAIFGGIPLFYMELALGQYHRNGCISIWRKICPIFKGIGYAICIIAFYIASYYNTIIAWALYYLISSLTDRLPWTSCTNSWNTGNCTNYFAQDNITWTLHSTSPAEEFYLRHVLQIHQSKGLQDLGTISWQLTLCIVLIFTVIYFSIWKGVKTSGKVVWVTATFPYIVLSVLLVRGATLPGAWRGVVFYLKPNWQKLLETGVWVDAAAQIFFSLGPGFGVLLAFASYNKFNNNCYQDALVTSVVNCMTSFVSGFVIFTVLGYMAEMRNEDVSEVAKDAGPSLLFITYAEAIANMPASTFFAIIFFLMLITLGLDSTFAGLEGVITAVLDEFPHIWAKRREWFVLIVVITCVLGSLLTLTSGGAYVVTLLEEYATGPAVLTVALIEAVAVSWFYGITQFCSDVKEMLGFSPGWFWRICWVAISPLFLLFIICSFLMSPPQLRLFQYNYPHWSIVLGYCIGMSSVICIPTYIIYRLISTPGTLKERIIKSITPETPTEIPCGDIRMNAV
# Excerpt: as §1
# [3] = biological target: T3, SERT (Rattus norvegicus, UniProt P31652); experiment: In vivo competitive binding: drug pretreatment before [125I]IDAM; settings: 2 mg/kg i.v. 5 min prior to tracer; 60 min after tracer
# T3 sequence (P31652 whole entry): as above
# Experimental: Experiments were performed using groups of 3-4 animals per study. […] The reduction of regional specific binding in the drug-pretreated rats was compared to the control animals with saline pretreatment.
# [4] = Partition coefficient octanol/buffer; format: physicochemical; settings: 1-octanol/pH 7 buffer
# [5] = biological target: T3, SERT; experiment: Competition binding with [125I]IDAM in rat frontal cortical homogenate; parameters: The frontal cortex of rat brain were dissected and homogenized in 30 volumes of buffer; from tissue; host or cells: rat frontal cortex membrane homogenates (male Sprague-Dawley rats, control and PCA-lesioned)
# Experimental: The homogenates were centrifuged at 20,000 g for 20 min. The resulting pellets were then re-suspended and recentrifuged. The final pellets were suspended in the same buffer and used for in vitro binding assays.
# Various inhibitors were serially diluted with the buffer containing 0.1% BSA to overcome the stickiness and loss due to dilution. […] Incubation was carried out for 60 min at room temperature and then terminated by separation of bound from free radioligand by filtration through glass fiber filters (Schleicher & Schuell No. 25, Keene, N.H.) presoaked with 1% polyethylenimine. The filters were then washed three times with 3 ml of ice-cold […] Tris buffer and counted in a gamma counter (Packard 5000) with 70% efficiency. To study the effect of […], the homogenates were prepared in a sodium-free 50 mM Tris-HCl/5 mM KCl buffer.
# [6] = Biodistribution in rats after i.v. injection of radioactive tracer; format: in vivo, rat
# Experimental: Three or four rats per group were used for each biodistribution study. While under ether anesthesia, 0.2 ml of a saline solution containing 10 μCi of radioactive tracer was injected into the femoral vein. The rats were sacrificed at the time indicated by cardiac excision while under ether anesthesia. Organs of interest were removed and weighed, and the radioactivity was counted using a Packard automatic gamma counter (Model 5000). The percent dose per organ was calculated by a comparison of the tissue counts to counts of 1% of the initial dose (100 times diluted aliquots of the injected material) measured at the same time.
# Regional brain distribution in rats was measured after an i.v. injection of the radioactive tracer. Samples from different brain regions [cortex (CX), striatum (ST), hippocampus (HP), cerebellum (CB) and hypothalamus (HY)] were dissected, weighed and counted. The percentage dose/g of each sample was calculated by comparing sample counts with the counts of the diluted initial dose described above. The ratio of specific binding (SB) in each region was obtained by dividing the difference of each region from the cerebellum (percentage dose/g) with that of the cerebellum [(region-CB)/CB].
# [7] = biological target: T4, norepinephrine transporter (NET) expressed in LLC-PK1 cells (Homo sapiens, UniProt P23975); experiment: [125I]IPT competition binding, LLC-NET membrane homogenates
# T4 construct: host or cells: LLC-PK1 (LLC-NET)
# T4 sequence (P23975 whole entry): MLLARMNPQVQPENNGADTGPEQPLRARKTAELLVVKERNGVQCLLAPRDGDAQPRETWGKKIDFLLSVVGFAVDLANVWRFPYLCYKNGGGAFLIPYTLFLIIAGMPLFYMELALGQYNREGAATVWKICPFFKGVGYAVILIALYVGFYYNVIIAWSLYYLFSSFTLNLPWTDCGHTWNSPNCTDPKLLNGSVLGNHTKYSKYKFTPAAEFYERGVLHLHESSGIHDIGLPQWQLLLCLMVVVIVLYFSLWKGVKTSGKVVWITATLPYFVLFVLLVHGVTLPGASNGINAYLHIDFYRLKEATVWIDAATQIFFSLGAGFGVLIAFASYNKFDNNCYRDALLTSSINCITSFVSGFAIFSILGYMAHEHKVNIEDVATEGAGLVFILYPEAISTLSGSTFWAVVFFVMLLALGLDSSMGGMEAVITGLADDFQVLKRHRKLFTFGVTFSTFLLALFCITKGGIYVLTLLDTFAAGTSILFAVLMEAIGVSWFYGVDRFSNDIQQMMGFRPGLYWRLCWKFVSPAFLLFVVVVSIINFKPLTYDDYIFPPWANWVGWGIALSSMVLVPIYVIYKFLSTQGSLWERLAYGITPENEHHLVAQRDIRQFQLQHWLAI
# Excerpt: as §1
# [8] = biological target: T3, SERT; parameters: The frontal cortex of rat brain were dissected and homogenized in 30 volumes of buffer; from tissue; host or cells: rat frontal cortex membrane homogenates (male Sprague-Dawley rats, control and PCA-lesioned); settings: Kung et al. 1992, cited from earlier work
# [9] = [125I]IPT ligand, LLC-PK1 membranes, read-out: Inhibition constant (Ki) DAT
# [10] = [125I]IPT ligand, LLC-PK1 membranes, read-out: Inhibition constant (Ki) SERT
# [11] = 0.2 nM [125I]IDAM, rat frontal cortical homogenate, read-out: Ki for inhibition of [125I]IDAM binding
# [12] = [125I]IPT ligand, LLC-PK1 membranes, read-out: Inhibition constant (Ki) NET
# T1 sequence (P23977 whole entry): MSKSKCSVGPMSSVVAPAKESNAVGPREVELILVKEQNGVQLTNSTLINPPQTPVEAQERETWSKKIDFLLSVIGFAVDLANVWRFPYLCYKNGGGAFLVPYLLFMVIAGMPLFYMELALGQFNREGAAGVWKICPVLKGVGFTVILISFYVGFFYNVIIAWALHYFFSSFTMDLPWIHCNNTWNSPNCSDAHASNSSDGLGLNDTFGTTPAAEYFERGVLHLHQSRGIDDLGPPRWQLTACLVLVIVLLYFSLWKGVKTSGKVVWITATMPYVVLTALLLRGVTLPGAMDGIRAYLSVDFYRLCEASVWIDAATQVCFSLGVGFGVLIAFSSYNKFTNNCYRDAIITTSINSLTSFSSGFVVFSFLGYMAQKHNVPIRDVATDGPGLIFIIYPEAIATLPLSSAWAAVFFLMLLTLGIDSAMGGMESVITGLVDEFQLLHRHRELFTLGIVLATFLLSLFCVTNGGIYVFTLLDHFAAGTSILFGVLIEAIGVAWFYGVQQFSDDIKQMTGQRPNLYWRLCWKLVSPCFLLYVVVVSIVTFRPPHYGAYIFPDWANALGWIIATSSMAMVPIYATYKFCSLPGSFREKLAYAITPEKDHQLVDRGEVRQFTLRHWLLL
smiles,measurement,setting,value
CN(C)Cc1ccccc1Sc1ccccc1N [K109],Ki,[1]; [9],1700 ± 600 nM
same,Ki,[2]; [10],0.038 ± 0.01 nM
"CN(C)Cc1ccccc1Sc1ccc(I)cc1CO [IDAM, 5-iodo-2-[[2-2[(dimethylamino)methyl]phenyl]thio]benzyl alcohol]",Ki,[1]; [9],> 10000 nM
same,Ki,[2],< 0.1 nM
same,selectivity for SERT,[2]; SERT versus DAT and NET,"more than 1,000 fold"
same,effect of pretreatment on specific binding of [125I]IDAM in rat brain regions,[3],dramatically reduced
same,partition coefficient,[4],473
same,Ki,[5],0.08 nM
"CN(C)Cc1ccccc1Oc1ccc([125I])cc1CO [[^125I]ODAM, 5-[123-Iodo or 125-iodo]-2-(2-dimethylaminomethylphenoxy)-benzyl alcohol]",% dose/organ BLOOD,[6]; 2 min,3.009 ± 0.212 % dose/organ
same,% dose/organ BRAIN,[6]; 2 min,2.033 ± 0.087 % dose/organ
same,% dose/organ THYROID,[6]; 2 min,0.080 ± 0.019 % dose/organ
same,Regional brain distribution (ratio/CB) CEREBELLUM,[6]; 2 min,1.000
same,Regional brain distribution (ratio/CB) CORTEX,[6]; 2 min,1.436
same,Regional brain distribution (ratio/CB) HIPPOCAMPUS,[6]; 2 min,0.983
same,Regional brain distribution (ratio/CB) HYPOTHALAMUS,[6]; 2 min,1.221
same,Regional brain distribution (ratio/CB) STRIATUM,[6]; 2 min,0.906
same,% dose/organ BLOOD,[6]; 30 min,3.517 ± 0.504 % dose/organ
same,% dose/organ BRAIN,[6]; 30 min,1.489 ± 0.146 % dose/organ
same,% dose/organ THYROID,[6]; 30 min,0.039 ± 0.006 % dose/organ
same,Regional brain distribution (ratio/CB) CEREBELLUM,[6]; 30 min,1.000
same,Regional brain distribution (ratio/CB) CORTEX,[6]; 30 min,1.771
same,Regional brain distribution (ratio/CB) HIPPOCAMPUS,[6]; 30 min,1.563
same,Regional brain distribution (ratio/CB) HYPOTHALAMUS,[6]; 30 min,1.860
same,Regional brain distribution (ratio/CB) STRIATUM,[6]; 30 min,1.590
same,% dose/organ BLOOD,[6]; 60 min,3.296 ± 0.373 % dose/organ
same,% dose/organ BRAIN,[6]; 60 min,0.785 ± 0.231 % dose/organ
same,% dose/organ THYROID,[6]; 60 min,0.028 ± 0.005 % dose/organ
same,Regional brain distribution (ratio/CB) CEREBELLUM,[6]; 60 min,1.000
same,Regional brain distribution (ratio/CB) CORTEX,[6]; 60 min,1.690
same,Regional brain distribution (ratio/CB) HIPPOCAMPUS,[6]; 60 min,1.791
same,Regional brain distribution (ratio/CB) HYPOTHALAMUS,[6]; 60 min,1.858
same,Regional brain distribution (ratio/CB) STRIATUM,[6]; 60 min,1.605
same,% dose/organ BLOOD,[6]; 120 min,1.868 ± 0.186 % dose/organ
same,% dose/organ BRAIN,[6]; 120 min,0.267 ± 0.066 % dose/organ
same,% dose/organ THYROID,[6]; 120 min,0.034 ± 0.006 % dose/organ
same,Regional brain distribution (ratio/CB) CEREBELLUM,[6]; 120 min,1.000
same,Regional brain distribution (ratio/CB) CORTEX,[6]; 120 min,1.672
same,Regional brain distribution (ratio/CB) HIPPOCAMPUS,[6]; 120 min,1.846
same,Regional brain distribution (ratio/CB) HYPOTHALAMUS,[6]; 120 min,1.630
same,Regional brain distribution (ratio/CB) STRIATUM,[6]; 120 min,1.617
same,% dose/organ BLOOD,[6]; 240 min,0.976 ± 0.073 % dose/organ
same,% dose/organ BRAIN,[6]; 240 min,0.065 ± 0.017 % dose/organ
same,% dose/organ THYROID,[6]; 240 min,0.041 ± 0.038 % dose/organ
same,Regional brain distribution (ratio/CB) CEREBELLUM,[6]; 240 min,1.000
same,Regional brain distribution (ratio/CB) CORTEX,[6]; 240 min,1.322
same,Regional brain distribution (ratio/CB) HIPPOCAMPUS,[6]; 240 min,1.648
same,Regional brain distribution (ratio/CB) HYPOTHALAMUS,[6]; 240 min,1.343
same,Regional brain distribution (ratio/CB) STRIATUM,[6]; 240 min,1.539
Cc1ccccc1Nc1ccc(N)cc1CN(C)C [K99036],Ki,[2]; [10],139 ± 15 nM
CN(C)Cc1ccccc1Oc1ccc(I)cc1 [K99039],Ki,[2]; [10],< 0.01 nM
"CCN1CCC[C@H]1CNC(=O)c1c(O)c(Cl)cc(Cl)c1OC [Raclopride, raclopride]",effect of pretreatment on specific binding of [125I]IDAM in rat brain regions,[3],no effect
same,Ki,[5]; [11],669 nM
"CN(C)Cc1ccccc1Sc1ccc(Br)cc1CO [brominated derivative, 5-bromo-2-[[2-2[(dimethylamino)methyl]phenyl]thio]benzyl alcohol]",Ki,[1]; [9],> 10000 nM
same,Ki,[7]; [12],35.4 nM
same,Ki,[2]; [10],< 0.1 nM
CC(=O)OCc1cc(Br)ccc1Sc1ccccc1CN(C)C [K68],Ki,[1]; [9],20.4 ± 1.55 nM
same,Ki,[7]; [12],420 ± 62.5 nM
same,Ki,[2]; [10],2.42 ± 0.06 nM
CN(C)Cc1ccccc1Sc1ccc(Br)cc1NO [K99025],Ki,[7]; [12],165 ± 9 nM
same,Ki,[2]; [10],~0.075 nM
CNCc1ccccc1Sc1ccc(I)cc1CO [K99032],Ki,[2]; [10],< 0.01 nM
COC(=O)C(c1ccccc1)C1CCCCN1 (stereo not shown) [methylphenidate],effect of pretreatment on specific binding of [125I]IDAM in rat brain regions,[3],no effect
same,Ki,[5],> 1000 nM
same,Ki for inhibition of [125I]IDAM binding,"[5]; 0.2 nM [125I]IDAM, rat frontal cortical homogenate",much less potent
CN(C)Cc1ccccc1Sc1ccc(Cl)cc1CO [K99033],Ki,[2],< 0.01 nM
Cc1ccccc1Nc1ccc(I)cc1CN(C)C [K99037],Ki,[2]; [10],27.3 ± 6.9 nM
CN(C)Cc1cc(N)ccc1Cc1ccccc1 [K99034],Ki,[2]; [10],35 ± 2.5 nM
COCc1cc(I)ccc1Sc1ccccc1CN(C)C [K104],Ki,[1],11000 ± 200 nM
same,Ki,[7],155 ± 18.7 nM
same,Ki,[2],0.02 nM
CN(C)Cc1ccccc1Sc1ccc(I)cc1N [K99028],Ki,[7]; [12],699 ± 80 nM
same,Ki,[2],~0.013 nM
"CN(C)Cc1ccccc1Oc1ccc(I)cc1CO [ODAM, 5-Iodo-2-(2-dimethylaminomethylphenoxy)-benzyl alcohol]",Ki,[1]; [9],3900 ± 700 nM
same,Ki,[2]; [10],0.12 nM
same,% dose/organ BRAIN,[6]; 2 min,2.03 % dose/organ
same,Regional brain distribution (ratio/CB) HYPOTHALAMUS,[6]; 2 min,1.22
same,% dose/organ BRAIN,[6]; 30 min,1.49 % dose/organ
same,Regional brain distribution (ratio/CB) HYPOTHALAMUS,[6]; 30 min,1.86
same,% dose/organ BRAIN,[6]; 60 min,0.79 % dose/organ
same,Regional brain distribution (ratio/CB) HYPOTHALAMUS,[6]; 60 min,1.86
same,% dose/organ BRAIN,[6]; 120 min,0.27 % dose/organ
same,Regional brain distribution (ratio/CB) HYPOTHALAMUS,[6]; 120 min,1.63
same,% dose/organ BRAIN,[6]; 240 min,0.07 % dose/organ
same,Regional brain distribution (ratio/CB) HYPOTHALAMUS,[6]; 240 min,1.34
same,Ki,[5]; [11],2.88 ± 0.88 nM
CNCCC(Oc1ccc(I)cc1C)c1ccccc1 (stereo not shown) [4-I-tomoxetine],Kd,[8],0.04 nM
same,nonspecific binding,[8]; at Kd value,> 25%
CCOCc1cc(I)ccc1Sc1ccccc1CN(C)C [K119],Ki,[1]; [9],11100 ± 1100 nM
same,Ki,[2]; [10],0.234 nM
CN(C)Cc1ccccc1Sc1ccc(Br)cc1[N+](=O)[O-] [K110],Ki,[1]; [9],14700 ± 2200 nM
same,Ki,[2]; [10],1.9 nM
CN(C)Cc1ccccc1Sc1ccc(Br)cc1N [K99026],Ki,[7],214 ± 68 nM
same,Ki,[2]; [10],~0.022 nM
CN(C)Cc1ccccc1Sc1ccc(Br)cn1 [K102],Ki,[2]; [10],> 1000 nM
CCCOCc1cc(I)ccc1Sc1ccccc1CN(C)C [K120],Ki,[1]; [9],9300 ± 200 nM
same,Ki,[7]; [12],382 ± 46 nM
same,Ki,[2]; [10],0.33 ± 0.06 nM
